Test results taken from patent US9108854B2, “Biocidal colloidal dispersions of silica particles with silver ions adsorbed thereon” (PREBONA AB, priority 2009, dated 2015).

Test system: fungi
Test: Fungal growth on treated slices of French bread
Details: slice brushed on all sides with 1000 ppm Ag; 3 days in warm and humid atmosphere, 20-35° C.
Method: Slices of French bread from a local baker were used as substrates for fungal growth. • 1. Bread slice was brushed on all sides with the sol containing 1000 ppm Ag • 2. […] Bread slice was untreated.
The bread slices on a dinner plate were put in a plastic bag, which in turn was placed in a glassed-in porch where the temperature varied between 20 and 35° C. over the day.

silver nitrate [AgNO3 solution]
resistance of bread slice to fungi attack: affords some protection
